pEC50, pIC50: −log10 of the molar value.
Experiments:
[1] = biological target: T1, wild type HCV NS3/4A 1b protease enzyme (Hepatitis C virus genotype 1b, UniProt P26663); assay: HCV Protease FRET Assay (IC50_APP), wild type; type: biochemical
T1 construct: 10× stocks of NS3/4A protease enzyme from Bioenza (Mountain View, Calif.); purchased Bioenza (Mountain View, Calif.)

[2] = biological target: T2, NS3 protease self-cleavage in Huh-7-Luc-Neo-ET wild-type replicon cells (Hepatitis C virus genotype 1b, UniProt Q9WMX2, E1202G/T1280I); assay: Inhibition of protease self cleavage after compound removal, wild-type replicon cells; type: cell-based; settings: up to 24 hours after compound removal
T2 construct: host or cells: Huh-7-Luc-Neo-ET (human Huh7 hepatoma cells carrying the replicon)
Description: Inhibition of Protease Self Cleavage
Huh-7-Luc-Neo-ET cells were plated in Replicon Assay Medium (RPMI supplemented with 5% FBS, 1× non-essential amino acids and pen/strep) at a density of 1×10^5 cells/well in 12 well plates. Eight hours later the media was removed and replaced with 1 ml media containing test compound (5 wells per compound) and 0.02% DMSO and the cells were returned to the incubator overnight. Sixteen hours later 1 well from each compound and 1 untreated well were washed with PBS, then lysed and scraped into 30 ul of Cell Extraction Buffer (Biosource, Camarillo, Calif.) plus Complete Protease Inhibitor (Roche, Indianapolis, Ind.). The remaining wells were rinsed 2× with PBS then fed with Replicon Media and returned to the incubator. […]
(§1) Cell lysates were separated by SDS-Page (4-20%) and transferred to Immobilon-P PVDF membrane (Millipore Corporation, Mass.) and blotted with polyclonal anti NS3 antibody (Bioenza, Calif.). Blots were scanned on an Odyssey infrared scanner from Licor and the FL band and cleavage products were quantified separately using the Licor software provided with the scanner. The cleavage product was calculated as a percentage of the total NS3 in each sample and then normalized to the DMSO control so that the DMSO control reflects 100% activity.

[3] = tested on: HCV RNA replicon in cell line ET (luc-ubi-neo/ET), human Huh7 hepatoma; assay: Method A: HCV RNA replicon antiviral assay (luciferase, ET cell line); type: cell-based, Hepatitis C virus; settings: Hepatitis C virus, Huh-7, assay described in Example 22
How it was run: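 Six 3-fold dilutions of each drug were tested on subconfluent luc-ubi-neo/ET Huh7 replicon cells (5×10^3/well) for 72 hr at 37 °C. EC50 and EC90 came from luciferase read-out, IC50 from CytoTox-1 cell number, and […]; interferon alpha-2b was run each time as control.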

[4] = biological target: T3, A156T mutant of the HCV NS3/4A 1b protease enzyme (Hepatitis C virus genotype 1b, UniProt P26663, A1182T); assay: HCV Protease FRET Assay (IC50_APP), A156T mutant; type: biochemical; settings: apparent IC50, A156T mutant; read-out: IC50_APP, HCV A156T
T3 construct: 10× stocks of NS3/4A protease enzyme from Bioenza (Mountain View, Calif.); purchased Bioenza (Mountain View, Calif.)

[5] = biological target: T4, NS3 protease with R155K mutation in modified replicon system (Hepatitis C virus genotype 1b, UniProt Q9WMX2, E1202G/R1181K/T1280I); assay: Inhibition of protease self cleavage after compound removal, R155K replicon system; type: cell-based
T4 construct: modified replicon system where the NS3 protease contains a clinically observed mutation; expressed in transfected cells; host or cells: Huh7-Lunet cells transfected with in vitro transcribed replicon RNA
Description: Constructs containing clinically relevant mutations were generated by performing site-directed mutagenesis on the pFK-I389-luc-ubi-neo-NS3-3′ET plasmid (ReBLikon Gmbh (Heidelberg, Germany)). using the QuickChange II Site-Directed Mutagenesis Kit (Stratagene, La Jolla, Calif.) according to manufacturer's directions and with the primers described in Table 7, below.
Huh-7-Luc-Neo-ET cells were plated in Replicon Assay Medium (RPMI supplemented with 5% FBS, 1× non-essential amino acids and pen/strep) at a density of 1×10^5 cells/well in 12 well plates. Eight hours later the media was removed and replaced with 1 ml media containing test compound (5 wells per compound) and 0.02% DMSO and the cells were returned to the incubator overnight. […]
as §1, with “activity. […]” for “activity.”

[6] = biological target: T5, D168A mutant of the HCV NS3/4A 1b protease enzyme (Hepatitis C virus genotype 1b, UniProt P26663, D1194A); assay: HCV Protease FRET Assay (IC50_APP), D168A mutant; type: biochemical; settings: apparent IC50, D168A mutant; read-out: IC50_APP, HCV D168A
T5 construct: 10× stocks of NS3/4A protease enzyme from Bioenza (Mountain View, Calif.); purchased Bioenza (Mountain View, Calif.)

[7] = biological target: T6, HCV NS3/4A genotype 2a (Hepatitis C virus genotype 2a, UniProt P26660); assay: Mass spectrometric analysis of covalent modification, genotype 2a; type: binding; settings: 10× excess of compound, 3 hr
T6 construct: Mass spectrometric analysis of HCV NS3/4A genotypes 1a, 1b, 2a, and 3a
Description: (§2) Mass spectrometric analysis of HCV NS3/4A genotypes 1a, 1b, 2a, and 3a in the presence of test compound I-96 was performed using the following protocol: HCV NS3/4A was incubated for 3 hr at a 10× fold access of test compound to protein. 2 ul aliquots of the samples were diluted with 10 ul of 0.1% TFA prior to micro C4 ZipTipping directly onto the MALDI target using Sinapinic acid as the desorption matrix (10 mg/ml in 01% TFA:Acetonitrile 50:50). For intact protein mass measurement the instrument was set in Linear mode using a pulsed extraction setting of 24,500 and apomyoglobin as the standard to calibrate the instrument.

[8] = biological target: T7, HCV NS3/4A genotype 3a (Hepatitis C virus genotype 3a, UniProt Q81258); assay: Mass spectrometric analysis of covalent modification, genotype 3a; type: binding; settings: 10× excess of compound, 3 hr
T7 construct: Mass spectrometric analysis of HCV NS3/4A genotypes 1a, 1b, 2a, and 3a
Description: as §2

[9] = biological target: T8, C159S mutant of the HCV NS3/4A 1b protease enzyme (Hepatitis C virus genotype 1b, UniProt P26663, C1185S); assay: HCV Protease FRET Assay (IC50_APP), C159S mutant; type: biochemical; settings: apparent IC50, C159S mutant
T8 construct: 10× stocks of NS3/4A protease enzyme from Bioenza (Mountain View, Calif.); purchased Bioenza (Mountain View, Calif.)
Description: HCV Protease FRET Assay for WT and Mutated NS3/4A 1b Enzymes (IC50—APP).
The following protocol was used to generate “apparent” IC50 (IC50—APP) values as depicted in Table 6, below. […] 5 μL of each enzyme were added to Corning (#3575) 384-well, black, microtiter plates (Corning, N.Y.) after spotting a 0.5 μL volume of 50% DMSO and serially diluted compounds prepared in 50% DMSO. Protease reactions were immediately started after enzyme addition with the addition of 45 μL of the FRET substrate and monitored for 60-90 minutes at λex485/λem520 in a Synergy^4 plate reader from BioTek (Winooski, Vt.). At the conclusion of each assay, progress curves from each well were examined for linear reaction kinetics and fit statistics (R^2, 95% confidence intervals, absolute sum of squares).
The compound numbers correspond to the compound numbers in Table 3. […] ;

[10] = biological target: T9, HCV NS3/4A wild type (genotype 1b) (Hepatitis C virus genotype 1b, UniProt P26663); assay: Mass spectrometric analysis (MALDI-TOF) of covalent modification, HCV wild type; type: binding; settings: 10-fold excess of compound to protein, 3 hrs
T9 construct: mass spectroscopic analysis of HCV NS3/4A wild-type protease domain; purchased Bioenza Calif
Description: Mass spectrometric analysis of HCV wild type or HCV variant C159S in the presence of test compound was performed. 100 pmols of HCV wild type (Bioenza Calif.) was incubated with compound for 1 hr and 3 hrs at 10-fold access of […] to protein. 1 ul aliquots of the samples (total volume of 4.24 ul) were diluted with 10 ul of 0.1% TFA prior to micro C4 ZipTipping directly onto the MALDI target using Sinapinic acid as the desorption matrix (10 mg/ml in 01% TFA:Acetonitrile 50:50). Analyses were performed on a Shimadzu Biotech Axima TOF^2 (Shimadzu Instruments) matrix-assisted-laser desorption/ionization Time-of-Flight (MALDI-TOF) mass spectrometer. The same procedure was carried out on 100 pmols of HCV C159S mutant of HCV protease for 3 hrs at 10-fold excess of (I-3) to protein.
As depicted in FIGS. 2, 3, 4, and 5, mass spectrometric analysis of HCV wild type or HCV mutants in the presence of test compound (I-3) was performed. […] 1 ul aliquots of the samples were diluted with 10 ul of 0.1% TFA prior to micro C4 ZipTipping directly onto the MALDI target using Sinapinic acid as the desorption matrix (10 mg/ml in 0.1% TFA:Acetonitrile 50:50).
as §2, with “wild type (genotype 1b)” for “NS3/4A genotypes 1a, 1b, 2a, and 3a”, “compounds I-73 and I-75” for “compound I-96”, “NS3/4A wild type (wt)” for “NS3/4A”, “1” for “3”, “0.1%” for “01%”
Mass spectrometric analysis of HCV NS3/4A genotypes 1a, 1b, 2a, and 3a in the presence of test compound I-96 was performed using the following protocol: HCV NS3/4A was incubated for 3 hr at a 10× fold access of test compound to protein. […]

[11] = tested on: HCV RNA replicon in cell line ET (luc-ubi-neo/ET), human Huh7 hepatoma; assay: Luciferase Assay (Example 35), replicon-derived luciferase activity; type: cell-based; settings: Hepatitis C virus, Huh-7, assay described in Example 35
How it was run: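 Huh7-derived ET cells carrying a luciferase-reporter HCV replicon, 5×10^3 cells/well, exposed 72 h to six 3-fold compound concentrations in DMEM with 5% FBS. Replicon luciferase gives EC50/EC90; Cell Titer Blue cell number gives cytotoxic IC50, with SI50 as their ratio. Interferon alpha-2b served as positive control.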

[12] = biological target: T10, R155K mutant of the HCV NS3/4A 1b protease enzyme (Hepatitis C virus genotype 1b, UniProt P26663, R1181K); assay: HCV Protease FRET Assay (IC50_APP), R155K mutant; type: biochemical; settings: apparent IC50, R155K mutant; read-out: IC50_APP, HCV R155K
T10 construct: 10× stocks of NS3/4A protease enzyme from Bioenza (Mountain View, Calif.); purchased Bioenza (Mountain View, Calif.)

[13] = biological target: T11, HCV NS3/4A genotype 1a (Hepatitis C virus genotype 1a, UniProt P27958); assay: Mass spectrometric analysis of covalent modification, genotype 1a; type: binding; settings: 10× excess of compound, 3 hr
T11 construct: Mass spectrometric analysis of HCV NS3/4A genotypes 1a, 1b, 2a, and 3a
Description: as §2

C=CC(=O)N[C@H](C)C(=O)N1C[C@H](Oc2cc(-c3ccccc3)nc3cc(OC)ccc23)C[C@H]1C(=O)N[C@]1(C(=O)NS(=O)(=O)C2CC2)C[C@H]1C=C [Compound I-54, (2S,4R)-1-((R)-2-acrylamidopropanoyl)-N-((1R,2S)-1-(cyclopropylsulfonylcarbamoyl)-2-vinylcyclopropyl)-4-(7-methoxy-2-phenylquinolin-4-yloxy)pyrrolidine-2-carboxamide]
pIC50 [1]: > 8.00
Inhibition of NS3 protease activity (self-cleavage) after compound removal [2]: virtually complete inhibition
IC90 ([3]; IC90): < 0.01 µM
pIC50 ([3]; read-out: Replicon (IC50)): > 8.00
pIC50 [4]: 7.00 to 8.00
Duration of inhibition of mutant protease activity after compound removal [5]: at least 24 hours
pIC50 [6]: 7.00 to 8.00

C=C[C@@H]1C[C@]1(NC(=O)[C@@H]1C[C@@H](Oc2nccc3cc(OC)ccc23)CN1C(=O)[C@H](CCC(=O)C=C(C)C)NC(=O)OC(C)(C)C)C(=O)NS(=O)(=O)C1CC1 [Compound I-96, {1-[2-(1-Cyclopropanesulfonylaminocarbonyl-2-vinyl-cyclopropylcarbamoyl)-4-(6-methoxy-isoquinolin-1-yloxy)-pyrrolidine-1-carbonyl]-6-methyl-4-oxo-hept-5-enyl}-carbamic acid tert-butyl ester]
pIC50 [1]: > 8.00
Covalent modification of HCV NS3/4A genotype 2a by mass spectrometry [7]: measurable covalent modification
Covalent modification of HCV NS3/4A genotype 3a by mass spectrometry [8]: measurable covalent modification
pIC50 [9]: > 8.00
Covalent modification of HCV wild type by mass spectrometry [10]: measurable covalent modification
EC90 ([11]; EC90): 0.01 to 0.1 µM
pEC50 [11]: > 8.00
pIC50 [12]: 7.00 to 8.00
Covalent modification of HCV NS3/4A genotype 1a by mass spectrometry [13]: measurable covalent modification
pIC50 [4]: 7.00 to 8.00
pIC50 [6]: 6.00 to 7.00

From patent US8309685B2 (Celgene Avilomics Research, Inc., priority 2007, dated 2012)
